Data on 2 molecules can be found in article PMC10590419, “Structural and mechanistic insights into the inhibition of respiratory syncytial virus polymerase by a non-nucleoside inhibitor” (Communications Biology, 2023).

One assay concerns the target RSV MTase-CTD protein (Human respiratory syncytial virus A, UniProt P28887). The assay can be described thus: Methyltransferase filter-binding assay. In kind it is biochemical. As to conditions: three technical replicates.
Assay [1] addresses T1, RSV L+P complex (Human respiratory syncytial virus A, UniProt P28887). It counts as biochemical.
Assay [2] concerns the target T1, RSV L+P complex. In words: Surface plasmon resonance assay. It counts as binding, Human RSV (strain A2). The following applies: SPR, top concentration 1 mM.

Several values for one entry are separate records, joined by “and”; a condition that tells them apart may be missing. Equal values may be shown once.

T1 sequence (P03421 whole entry): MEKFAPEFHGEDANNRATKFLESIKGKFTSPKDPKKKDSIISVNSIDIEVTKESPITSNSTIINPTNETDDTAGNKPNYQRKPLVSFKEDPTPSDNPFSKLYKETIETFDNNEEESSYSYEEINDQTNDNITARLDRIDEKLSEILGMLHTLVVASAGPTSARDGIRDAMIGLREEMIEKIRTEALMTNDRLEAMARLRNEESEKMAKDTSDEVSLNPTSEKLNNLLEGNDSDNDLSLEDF
T1 sequence (P28887 whole entry): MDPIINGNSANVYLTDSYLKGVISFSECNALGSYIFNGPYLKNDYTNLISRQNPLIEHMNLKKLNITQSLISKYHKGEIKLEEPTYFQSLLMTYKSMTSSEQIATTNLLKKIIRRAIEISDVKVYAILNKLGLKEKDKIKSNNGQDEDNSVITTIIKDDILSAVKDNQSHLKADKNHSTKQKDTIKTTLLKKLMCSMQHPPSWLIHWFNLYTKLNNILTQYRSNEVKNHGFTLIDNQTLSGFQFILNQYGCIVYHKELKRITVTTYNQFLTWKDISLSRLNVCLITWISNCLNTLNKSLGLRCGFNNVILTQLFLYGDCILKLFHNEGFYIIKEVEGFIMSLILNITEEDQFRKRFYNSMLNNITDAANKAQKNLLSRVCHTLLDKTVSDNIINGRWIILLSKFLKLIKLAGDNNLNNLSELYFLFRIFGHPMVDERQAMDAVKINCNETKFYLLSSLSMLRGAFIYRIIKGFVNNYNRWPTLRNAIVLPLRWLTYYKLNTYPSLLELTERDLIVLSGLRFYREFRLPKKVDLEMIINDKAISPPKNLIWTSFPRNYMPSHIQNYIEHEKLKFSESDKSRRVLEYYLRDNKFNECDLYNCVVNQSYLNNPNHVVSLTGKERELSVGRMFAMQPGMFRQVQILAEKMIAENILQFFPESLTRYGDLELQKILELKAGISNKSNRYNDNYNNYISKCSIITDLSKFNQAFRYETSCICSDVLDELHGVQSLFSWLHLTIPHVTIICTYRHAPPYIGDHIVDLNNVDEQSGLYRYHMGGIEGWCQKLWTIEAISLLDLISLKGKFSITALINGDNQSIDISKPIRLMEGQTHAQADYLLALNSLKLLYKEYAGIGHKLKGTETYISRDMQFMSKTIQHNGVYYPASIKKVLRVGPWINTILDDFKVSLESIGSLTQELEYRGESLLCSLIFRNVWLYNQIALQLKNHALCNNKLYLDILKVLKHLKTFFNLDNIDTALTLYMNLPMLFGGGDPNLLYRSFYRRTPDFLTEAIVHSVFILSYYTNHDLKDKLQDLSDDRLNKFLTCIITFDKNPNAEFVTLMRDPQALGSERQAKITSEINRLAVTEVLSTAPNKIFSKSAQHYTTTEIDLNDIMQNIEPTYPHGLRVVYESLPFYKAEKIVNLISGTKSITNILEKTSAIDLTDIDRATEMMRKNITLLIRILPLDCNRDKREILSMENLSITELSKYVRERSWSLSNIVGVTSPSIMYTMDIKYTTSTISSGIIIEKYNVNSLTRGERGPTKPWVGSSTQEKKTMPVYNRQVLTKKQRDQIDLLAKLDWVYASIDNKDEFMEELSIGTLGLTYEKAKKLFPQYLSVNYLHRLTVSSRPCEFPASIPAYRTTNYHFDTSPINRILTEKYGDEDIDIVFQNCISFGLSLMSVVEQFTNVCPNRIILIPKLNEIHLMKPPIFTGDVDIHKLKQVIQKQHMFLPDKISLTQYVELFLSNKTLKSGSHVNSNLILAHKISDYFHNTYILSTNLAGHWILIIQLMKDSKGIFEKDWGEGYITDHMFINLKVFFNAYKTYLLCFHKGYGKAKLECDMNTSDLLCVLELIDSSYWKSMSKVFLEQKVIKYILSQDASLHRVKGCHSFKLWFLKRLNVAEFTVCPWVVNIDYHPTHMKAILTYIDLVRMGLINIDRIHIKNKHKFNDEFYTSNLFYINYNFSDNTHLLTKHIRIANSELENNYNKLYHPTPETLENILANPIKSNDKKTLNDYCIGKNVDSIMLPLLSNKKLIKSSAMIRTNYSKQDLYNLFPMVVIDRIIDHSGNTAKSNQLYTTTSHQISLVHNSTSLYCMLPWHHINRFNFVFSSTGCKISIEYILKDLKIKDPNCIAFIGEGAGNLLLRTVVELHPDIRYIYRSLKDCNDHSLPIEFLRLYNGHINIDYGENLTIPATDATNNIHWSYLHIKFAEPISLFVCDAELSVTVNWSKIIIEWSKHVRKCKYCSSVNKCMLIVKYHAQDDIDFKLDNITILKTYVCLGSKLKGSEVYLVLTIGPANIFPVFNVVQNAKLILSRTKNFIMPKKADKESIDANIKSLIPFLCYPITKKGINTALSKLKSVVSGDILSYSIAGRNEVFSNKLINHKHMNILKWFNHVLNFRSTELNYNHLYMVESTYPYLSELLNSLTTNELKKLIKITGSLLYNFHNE
Sequence of RSV MTase-CTD protein (P28887 1755-2165): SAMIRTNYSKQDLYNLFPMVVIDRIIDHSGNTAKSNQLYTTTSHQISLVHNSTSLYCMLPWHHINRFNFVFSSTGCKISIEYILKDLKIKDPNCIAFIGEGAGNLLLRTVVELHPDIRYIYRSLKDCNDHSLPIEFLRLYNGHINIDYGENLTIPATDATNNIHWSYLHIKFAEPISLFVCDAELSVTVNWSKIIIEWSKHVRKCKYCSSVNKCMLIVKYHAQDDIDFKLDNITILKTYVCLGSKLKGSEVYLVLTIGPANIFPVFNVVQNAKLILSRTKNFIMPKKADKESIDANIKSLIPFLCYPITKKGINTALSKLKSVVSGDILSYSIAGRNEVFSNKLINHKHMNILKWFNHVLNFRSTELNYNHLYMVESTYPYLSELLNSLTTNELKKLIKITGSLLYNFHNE

For the molecule `O=C(NC1CC1)c1cc2c(s1)-c1ccccc1N(C(=O)c1ccc(NC(=O)c3cccnc3N3CCC4(CC3)COC4)cc1)CC2` [AZ-27, reference compound], the “MTase activity, RNA+compound+RSV MTase-CTD, CPM” value on RSV MTase-CTD protein (50 uM) was 28343 CPM and 26589 CPM and 27119 CPM; on RSV MTase-CTD protein (200 uM) it was 32944 CPM and 32511 CPM and 35155 CPM. Besides, on RSV L+P complex [1], the “MTase activity, RNA+compound+RSV L+P, CPM” value was 10786 CPM and 11483 CPM and 10556 CPM and 15234 CPM and 15171 CPM and 17548 CPM.
Regarding `Nc1nc2c(ncn2[C@@H]2O[C@H](COP(=O)(O)OP(=O)(O)O)[C@@H](O)[C@H]2O)c(=O)[nH]1` [GDP, guanosine diphosphate], the “binding to purified RSV L+P (in words)” value at RSV L+P complex [2] is listed as “did not bind”.
